Measured values taken from publication PMC8632988, “Inhibition of SYK and cSrc kinases can protect bone and cartilage in preclinical models of osteoarthritis and rheumatoid arthritis” (Scientific Reports, 2021).
Values joined by “and” are separate entries in the source; they are usually repeats but may differ in a detail not shown here. Equal entries are not always repeated.

Tested on: DBA/1 mice, CIA model
Test: Collagen-induced arthritis model in mice
Assay type: in vivo, mouse
Set-up: Total AUC Sum (d1-11) / Total AUC Sum (d1-11), Mean: scale not given here
Description: Collagen-induced arthritis (CIA) model was performed at Bolder BioPATH, USA. Study design and animal usage was approved by Bolder BioPATH’s Institutional Animal Care and Use Committee. CIA was induced in 6–7 week old male DBA/1 mice with body weight of 15–26 g (Harlan, Inc) by intradermal injection of Freund’s Complete Adjuvant (Difco) containing bovine type II collagen (Bolder BioPATH) on day 0 and again on day 21 according to the standard protocol. […] After that mice were randomized into six groups: a control group of four, vehicle group and four treatment groups of ten mice each. […] Each paw was scored daily for inflammation. Therapeutic and prophylactic paws were considered. At study termination mice were euthanized by CO2 inhalation followed by cervical dislocation. Fore paws, hind paws, and knees were removed for microscopy.
Mice were weighed on arthritis days 1, 3, 5, 7, 9, and 11 (prior to necropsy). Daily clinical scores were given for each of the paws (right front, left front, right rear, left rear) on days 1–11 using the following criteria:
After 1–2 days in fixative and 4–5 days in 5% formic acid for decalcification, tissues were trimmed, processed for paraffin embedding, sectioned at 8 µm and stained with toluidine blue. Hind paws and knees were embedded and sectioned in the frontal plane. Two joints from each animal were processed for histopathology evaluation. The joints were then scored by two independent readers as indicated below. When scoring, severity of changes as well as number of individual joints affected were considered. When only 1–3 joints of the paws or ankles out of a possibility of numerous metacarpal/metatarsal/digit or tarsal/tibiotarsal joints were affected, an arbitrary assignment of a maximum score of 1, 2 or 3 for parameters below was given depending on severity of changes. If more than 3 joints were involved, the criteria below were applied to the most severely affected/majority of joints.

[1] = all joints, MT-SYK-03 103 mg/kg PO, BID (Group 4)
[2] = all joints, MT-SYK-03 103 mg/kg PO, BID (Group 4), group mean
[3] = all joints, MT-SYK-03 103 mg/kg PO, BID (Group 4), individual animals, 103 mg/kg

Structure (SMILES): COc1cc(Nc2ncnc(Nc3cc4c(cn3)NC(=O)C(C)(C)O4)n2)cc(OC)c1OC [MT-SYK-03]
- % inhibition to Vehicle, Summed Prophylactic (Non-Enrollment) Paw Score (MT-SYK-03 103 mg/kg PO, BID, Day 11): 17%
- Summed Prophylactic (Non-Enrollment) Paw Score (MT-SYK-03 103 mg/kg PO, BID, Day 11, group mean): 7.30
- Summed Prophylactic (Non-Enrollment) Paw Score (MT-SYK-03 103 mg/kg PO, BID, Day 11, individual animals, 103 mg/kg): 9 and 3 and 12 and 8 and 2 and 10 and 7 and 5
- Total AUC Sum (d1-11), Prophylactic (Non-Enrollment) Paw Score (MT-SYK-03 103 mg/kg PO, BID, group mean): 54.15
- Total AUC Sum (d1-11), Prophylactic (Non-Enrollment) Paw Score (MT-SYK-03 103 mg/kg PO, BID, individual animals, 103 mg/kg): 67.5 and 27.5 and 71.0 and 61.0 and 12.0 and 80.0 and 70.5 and 51.5 and 63.0 and 37.5
- % inhibition, Bone Resorption score [1]: 29%
- % inhibition, Cartilage Damage score [1]: 17%
- % inhibition, Inflammation score [1]: 7%
- % inhibition, Pannus score [1]: 29%
- % inhibition, Periosteal Bone Formation score [1]: 18%
- % inhibition, Periosteal Bone Width [1]: 20%
- % inhibition, Summed Scores [1]: 18%
- Histopathology Scores Bone Resorption, Mean [2]: 1.23
- Histopathology Scores Cartilage Damage, Mean [2]: 2.74
- Histopathology Scores Inflammation, Mean [2]: 3.44
- Histopathology Scores Pannus, Mean [2]: 1.23
- Histopathology Scores Periosteal Bone Formation, Mean [2]: 0.93
- Histopathology Scores Summed Scores, Mean [2]: 9.58
- Periosteal Bone Width (40*25x measure), Mean [2]: 79.33 μm
- Histopathology Scores Bone Resorption [3]: 0.83 and 0.75 and 1.17 and 1.92 and 1.42 and 2.00 and 1.75 and 0.33
- Histopathology Scores Cartilage Damage [3]: 2.33 and 2.00 and 2.58 and 4.00 and 1.67 and 2.75 and 4.17 and 3.25 and 0.67
- Histopathology Scores Inflammation [3]: 2.83 and 3.17 and 3.83 and 4.67 and 1.92 and 3.42 and 4.50 and 4.33
- Histopathology Scores Pannus [3]: 0.83 and 0.75 and 1.17 and 1.92 and 1.42 and 2.00 and 1.75 and 0.33
- Histopathology Scores Periosteal Bone Formation [3]: 0.67 and 1.17 and 1.33 and 0.33 and 1.67 and 0.83
- Histopathology Scores Summed Scores [3]: 7.50 and 7.33 and 9.92 and 13.83 and 5.42 and 10.17 and 11.58 and 12.67 and 3.58
- Periosteal Bone Width (40*25x measure) [3]: 40.00 μm and 53.33 μm and 106.67 μm and 120.00 μm and 33.33 μm and 86.67 μm and 140.00 μm and 80.00 μm and 26.67 μm
- Histopathology scores for knee and ankle joints (murine CIA): decreased histopathology scores
- Periosteal bone width of paw and knee joints (murine CIA): slightly decreased
- Cartilage damage, bone resorption and inflammation in knees (microphotographs) (murine CIA, 103 mg/kg oral): decreasing of cartilage damage, bone resorption and inflammation in knees
- Clinical arthritis score (severity of inflammation) (murine CIA, MT-SYK-03 103 mg/kg oral): reduced the severity of inflammation
- % inhibition to Vehicle, Total AUC Sum (d1-11) (therapeutic/enrollment paw score, MT-SYK-03 103 mg/kg PO, BID (Group 4)): 6%
- Total AUC Sum (d1-11), Mean (therapeutic/enrollment paw score, MT-SYK-03 103 mg/kg PO, BID (Group 4), group mean): 59.75
- Total AUC Sum (d1-11) (therapeutic/enrollment paw score, MT-SYK-03 103 mg/kg PO, BID (Group 4), individual animals, 103 mg/kg): 79 and 81 and 73 and 33 and 42 and 102 and 83 and 38 and 36
- % inhibition to Vehicle, paw score Day 1 (therapeutic/enrollment paws, Day 1, MT-SYK-03 103 mg/kg PO, BID (Group 4)): 0%
- Average Paw Score Per Arthritis Day, Day 1, Mean (therapeutic/enrollment paws, Day 1, MT-SYK-03 103 mg/kg PO, BID (Group 4), group mean): 3.20
- Average Paw Score Per Arthritis Day, Day 1 (therapeutic/enrollment paws, Day 1, MT-SYK-03 103 mg/kg PO, BID (Group 4), individual animals, 103 mg/kg): 4 and 2 and 6
- % inhibition to Vehicle, paw score Day 2 (therapeutic/enrollment paws, Day 2, MT-SYK-03 103 mg/kg PO, BID (Group 4)): 19%
- Average Paw Score Per Arthritis Day, Day 2, Mean (therapeutic/enrollment paws, Day 2, MT-SYK-03 103 mg/kg PO, BID (Group 4), group mean): 3.80
- Average Paw Score Per Arthritis Day, Day 2 (therapeutic/enrollment paws, Day 2, MT-SYK-03 103 mg/kg PO, BID (Group 4), individual animals, 103 mg/kg): 4 and 6 and 2 and 3
- % inhibition to Vehicle, paw score Day 3 (therapeutic/enrollment paws, Day 3, MT-SYK-03 103 mg/kg PO, BID (Group 4)): 8%
- Average Paw Score Per Arthritis Day, Day 3, Mean (therapeutic/enrollment paws, Day 3, MT-SYK-03 103 mg/kg PO, BID (Group 4), group mean): 5.40
- Average Paw Score Per Arthritis Day, Day 3 (therapeutic/enrollment paws, Day 3, MT-SYK-03 103 mg/kg PO, BID (Group 4), individual animals, 103 mg/kg): 6 and 8 and 3 and 4 and 9
- % inhibition to Vehicle, paw score Day 4 (therapeutic/enrollment paws, Day 4, MT-SYK-03 103 mg/kg PO, BID (Group 4)): 6%
- Average Paw Score Per Arthritis Day, Day 4, Mean (therapeutic/enrollment paws, Day 4, MT-SYK-03 103 mg/kg PO, BID (Group 4), group mean): 5.80
- Average Paw Score Per Arthritis Day, Day 4 (therapeutic/enrollment paws, Day 4, MT-SYK-03 103 mg/kg PO, BID (Group 4), individual animals, 103 mg/kg): 7 and 8 and 6 and 4 and 10 and 3
- % inhibition to Vehicle, paw score Day 5 (therapeutic/enrollment paws, Day 5, MT-SYK-03 103 mg/kg PO, BID (Group 4)): 6%
- Average Paw Score Per Arthritis Day, Day 5, Mean (therapeutic/enrollment paws, Day 5, MT-SYK-03 103 mg/kg PO, BID (Group 4), group mean): 6.20
- Average Paw Score Per Arthritis Day, Day 5 (therapeutic/enrollment paws, Day 5, MT-SYK-03 103 mg/kg PO, BID (Group 4), individual animals, 103 mg/kg): 8 and 7 and 4 and 11 and 3 and 9
- % inhibition to Vehicle, paw score Day 6 (therapeutic/enrollment paws, Day 6, MT-SYK-03 103 mg/kg PO, BID (Group 4)): 5%
- Average Paw Score Per Arthritis Day, Day 6, Mean (therapeutic/enrollment paws, Day 6, MT-SYK-03 103 mg/kg PO, BID (Group 4), group mean): 6.30
- Average Paw Score Per Arthritis Day, Day 6 (therapeutic/enrollment paws, Day 6, MT-SYK-03 103 mg/kg PO, BID (Group 4), individual animals, 103 mg/kg): 8 and 4 and 11 and 3 and 9
- % inhibition to Vehicle, paw score Day 7 (therapeutic/enrollment paws, Day 7, MT-SYK-03 103 mg/kg PO, BID (Group 4)): 3%
- Average Paw Score Per Arthritis Day, Day 7, Mean (therapeutic/enrollment paws, Day 7, MT-SYK-03 103 mg/kg PO, BID (Group 4), group mean): 6.60
- Average Paw Score Per Arthritis Day, Day 7 (therapeutic/enrollment paws, Day 7, MT-SYK-03 103 mg/kg PO, BID (Group 4), individual animals, 103 mg/kg): 9 and 8 and 4 and 11
- % inhibition to Vehicle, paw score Day 8 (therapeutic/enrollment paws, Day 8, MT-SYK-03 103 mg/kg PO, BID (Group 4)): 3%
- Average Paw Score Per Arthritis Day, Day 8, Mean (therapeutic/enrollment paws, Day 8, MT-SYK-03 103 mg/kg PO, BID (Group 4), group mean): 6.80
- Average Paw Score Per Arthritis Day, Day 8 (therapeutic/enrollment paws, Day 8, MT-SYK-03 103 mg/kg PO, BID (Group 4), individual animals, 103 mg/kg): 10 and 9 and 3 and 5 and 11 and 4
- % inhibition to Vehicle, paw score Day 9 (therapeutic/enrollment paws, Day 9, MT-SYK-03 103 mg/kg PO, BID (Group 4)): 5%
- Average Paw Score Per Arthritis Day, Day 9, Mean (therapeutic/enrollment paws, Day 9, MT-SYK-03 103 mg/kg PO, BID (Group 4), group mean): 6.90
- Average Paw Score Per Arthritis Day, Day 9 (therapeutic/enrollment paws, Day 9, MT-SYK-03 103 mg/kg PO, BID (Group 4), individual animals, 103 mg/kg): 10 and 9 and 3 and 5 and 12 and 4
- % inhibition to Vehicle, paw score Day 10 (therapeutic/enrollment paws, Day 10, MT-SYK-03 103 mg/kg PO, BID (Group 4)): 7%
- Average Paw Score Per Arthritis Day, Day 10, Mean (therapeutic/enrollment paws, Day 10, MT-SYK-03 103 mg/kg PO, BID (Group 4), group mean): 6.90
- Average Paw Score Per Arthritis Day, Day 10 (therapeutic/enrollment paws, Day 10, MT-SYK-03 103 mg/kg PO, BID (Group 4), individual animals, 103 mg/kg): 10 and 9 and 3 and 5 and 12 and 4
- % inhibition to Vehicle, paw score Day 11 (therapeutic/enrollment paws, Day 11, MT-SYK-03 103 mg/kg PO, BID (Group 4)): 7%
- Average Paw Score Per Arthritis Day, Day 11, Mean (therapeutic/enrollment paws, Day 11, MT-SYK-03 103 mg/kg PO, BID (Group 4), group mean): 6.90
- Average Paw Score Per Arthritis Day, Day 11 (therapeutic/enrollment paws, Day 11, MT-SYK-03 103 mg/kg PO, BID (Group 4), individual animals, 103 mg/kg): 10 and 9 and 3 and 5 and 12 and 4
